Series [1] is described as follows: Determination of pKa of formulated lipids (TNS fluorescence assay in lipid nanoparticles). The series is classed as physicochemical. The conditions noted are these: lipid formulated in LNP, 47.5% cationic lipid/10% DSPC/40.8% Cholesterol/1.7% PEG lipid. The protocol:
As described elsewhere, the pKa of formulated lipids is correlated with the effectiveness of LNPs for delivery of nucleic acids (see Jayaraman et al, Angewandte Chemie, International Edition (2012), 51(34), 8529-8533; Semple et al, Nature Biotechnology 28, 172-176 (2010)). The preferred range of pKa is ˜5 to ˜7. The pKa of each lipid was determined in lipid nanoparticles using an assay based on fluorescence of 2-(p-toluidino)-6-napthalene sulfonic acid (TNS). Lipid nanoparticles comprising novel lipid or structure (I) or (II)/DSPC/cholesterol/PEG-lipid (50/10/38.5/1.5 or 47.5:10:40.8:1.7 mol %) in PBS at a concentration of 0.4 mM total lipid are prepared using the in-line process as described in Example 1. TNS was prepared as a 100 μM stock solution in distilled water. Vesicles were diluted to 24 μM lipid in 2 mL of buffered solutions containing 10 mM HEPES, 10 mM MES, 10 mM ammonium acetate, and 130 mM NaCl, where the pH ranged from 2.5 to 11. An aliquot of the TNS solution was added to give a final concentration of 1 μM and following vortex mixing fluorescence intensity was measured at room temperature in a SLM Aminco Series 2 Luminescence Spectrophotometer using excitation and emission wavelengths of 321 nm and 445 nm. A sigmoidal best fit analysis was applied to the fluorescence data and the pKa was measured as the pH giving rise to half-maximal fluorescence intensity.
(§1) Tables 3 and 4 provide properties of representative compounds of structure (I) and (II), respectively, which were formulated using the following molar ratio: 47.5% cationic lipid/10% distearoylphosphatidylcholine (DSPC)/40.8% Cholesterol/1.7% PEG lipid (“PEG-DMA” 2-[2-(ω-methoxy(polyethyleneglycol2000)ethoxy]-N,N-ditetradecylacetamide). Relative activity was determined by measuring luciferase expression in the liver 4 hours following administration via tail vein injection as described in Example 1. The activity was compared at a dose of 0.3 and 1.0 mg mRNA/kg and expressed as ng luciferase/g liver measured 4 hours after administration, as described in Example 1.

Series [2] concerns luciferase expression in the liver. Briefly: Luciferase mRNA in vivo evaluation using lipid nanoparticle compositions. More on the design: species or system mice. The note with it: tail vein injection, liver 4 hours after administration, LNP 47.5/10/40.8/1.7; for Liver Luc @ 0.3 mg/kg (ng luc/g liver): 0.3 mg mRNA/kg; for Liver Luc @ 1.0 mg/kg (ng luc/g liver): 1.0 mg mRNA/kg. The protocol: A lipid of structure (I) or (II), DSPC, cholesterol and PEG-lipid were solubilized in ethanol at a molar ratio of 50:10:38.5:1.5 or 47.5:10:40.8:1.7. Lipid nanoparticles (LNP) were prepared at a total lipid to mRNA weight ratio of approximately 10:1 to 30:1. Briefly, the mRNA was diluted to 0.2 mg/mL in 10 to 50 mM citrate buffer, pH 4. Syringe pumps were used to mix the ethanolic lipid solution with the mRNA aqueous solution at a ratio of about 1:5 to 1:3 (vol/vol) with total flow rates above 15 mL/min. The ethanol was then removed and the external buffer replaced with PBS by dialysis. Finally, the lipid nanoparticles were filtered through a 0.2 µm pore sterile filter.
Studies were performed in 6-8 week old female C57BL/6 mice (Charles River) 8-10 week old CD-1 (Harlan) mice (Charles River) according to guidelines established by an institutional animal care committee (ACC) and the Canadian Council on Animal Care (CCAC). Varying doses of mRNA-lipid nanoparticle were systemically administered by tail vein injection and animals euthanized at a specific time point (e.g., 4 hours) post-administration. Liver and spleen were collected in pre-weighed tubes, weights determined, immediately snap frozen in liquid nitrogen and stored at −80° C. until processing for analysis.
For liver, approximately 50 mg was dissected for analyses in a 2 mL FastPrep tubes (MP Biomedicals, Solon Ohio). ¼″ ceramic sphere (MP Biomedicals) was added to each tube and 500 μL of Glo Lysis Buffer—GLB (Promega, Madison WI) equilibrated to room temperature was added to liver tissue. Liver tissues were homogenized with the FastPrep24 instrument (MP Biomedicals) at 2×6.0 m/s for 15 seconds. Homogenate was incubated at room temperature for 5 minutes prior to a 1:4 dilution in GLB and assessed using SteadyGlo Luciferase assay system (Promega). Specifically, 50 μL of diluted tissue homogenate was reacted with 50 μL of SteadyGlo substrate, shaken for 10 seconds followed by 5 minute incubation and then quantitated using a CentroXS^3 LB 960 luminometer (Berthold Technologies, Germany). The amount of protein assayed was determined by using the BCA protein assay kit (Pierce, Rockford, IL). Relative luminescence units (RLU) were then normalized to total μg protein assayed. To convert RLU to ng luciferase a standard curve was generated with QuantiLum Recombinant Luciferase (Promega).
The FLuc mRNA (L-6107) from Trilink Biotechnologies will express a luciferase protein, originally isolated from the firefly, photinus pyralis. FLuc is commonly used in mammalian cell culture to measure both gene expression and cell viability. It emits bioluminescence in the presence of the substrate, luciferin. This capped and polyadenylated mRNA is fully substituted with 5-methylcytidine and pseudouridine.
as §1

SMILES strings stand for the structures.

For the molecule `CCCCCCCCC(CCCCCC)COC(=O)CCCCCN(CCCCCC(=O)OCC(CCCCCC)CCCCCCCC)CCCCC(=O)O` (stereo not shown) [Compound I-2], the pKa (commonly the negative logarithm of the acid dissociation constant) in series [1] (structure (I) compounds) was determined as 5.57.

In turn, `CCCCCCCCNC(=O)CCCCN(CCCCCC(=O)OCC(CCCCCC)CCCCCCCC)CCCCCC(=O)OCC(CCCCCC)CCCCCCCC` (stereo not shown) [Compound I-3] registered a pKa in series [1] (structure (I) compounds) of 5.99. In series [2] (structure (I) compounds), the “Liver Luc @ 0.3 mg/kg (ng luc/g liver)” value was 139 ± 43 ng luc/g liver and the “Liver Luc @ 1.0 mg/kg (ng luc/g liver)” value was found to be 1711 ± 507 ng luc/g liver.

As to `CCCCCCCCCN(CCO)C(=O)CCCCN(CCCCCC(=O)OCC(CCCCCC)CCCCCCCC)CCCCCC(=O)OCC(CCCCCC)CCCCCCCC` (stereo not shown) [Compound I-6], in series [1] (structure (I) compounds), the pKa is 6.32. In series [2] (structure (I) compounds), the “Liver Luc @ 0.3 mg/kg (ng luc/g liver)” value is on record as 580 ± 209 ng luc/g liver and the “Liver Luc @ 1.0 mg/kg (ng luc/g liver)” value is 3290 ± 582 ng luc/g liver.

`CCCCCCCCC(CCCCCC)COC(=O)CCCCCCCN(CCCCCCCC(=O)OCC(CCCCCC)CCCCCCCC)CCCCC(=O)N(CC)CC` (stereo not shown) [Compound I-11] showed a pKa in series [1] (structure (I) compounds) of 5.89. Besides, in series [2] (structure (I) compounds), the “Liver Luc @ 0.3 mg/kg (ng luc/g liver)” value came out at 228 ± 101 ng luc/g liver and the “Liver Luc @ 1.0 mg/kg (ng luc/g liver)” value is on record as 910 ± 454 ng luc/g liver.

Consider `CCCCCCCCC(CCCCCC)COC(=O)CCCCCCCN(CCCCCCCC(=O)OCC(CCCCCC)CCCCCCCC)CCCCC(=O)N(CCCO)CCCCCCCC` (stereo not shown) [Compound I-12], for which the pKa in series [1] (structure (I) compounds) came out at 6.01. Besides, in series [2] (structure (I) compounds), the “Liver Luc @ 0.3 mg/kg (ng luc/g liver)” value was found to be 413 ± 143 ng luc/g liver and the “Liver Luc @ 1.0 mg/kg (ng luc/g liver)” value was found to be 4002 ± 1573 ng luc/g liver.

Consider `CCCCCCCCC(CCCCCC)COC(=O)CCCCCN(CCCCCC(=O)OCC(CCCCCC)CCCCCCCC)CCCCNC(=O)CCCCCCC` (stereo not shown) [II-4], for which, in series [1] (structure (II) compounds), the pKa was determined as 5.95. In series [2] (structure (II) compounds), the “Liver Luc @ 0.3 mg/kg (ng luc/g liver)” value was determined as 150 ± 59 ng luc/g liver and the “Liver Luc @ 1.0 mg/kg (ng luc/g liver)” value was determined as 1405 ± 306 ng luc/g liver.

Turning to `CCCCCCCCC(CCCCCC)COC(=O)CCCCCCCN(CCCCCCCC(=O)OCC(CCCCCC)CCCCCCCC)CCCCN(C)C(C)=O` (stereo not shown) [II-5], the pKa in series [1] (structure (II) compounds) is 6.8. Besides, in series [2] (structure (II) compounds), the “Liver Luc @ 0.3 mg/kg (ng luc/g liver)” value came to 146 ± 16 ng luc/g liver and the “Liver Luc @ 1.0 mg/kg (ng luc/g liver)” value worked out at 695 ± 278 ng luc/g liver.

In turn, `CCCCCCCC(=O)N(C)CCCN(CCCCCC(=O)OCC(CCCC)CCCCCC)CCCCCC(=O)OCC(CCCC)CCCCCC` (stereo not shown) [II-14] showed a pKa in series [1] (structure (II) compounds) of 5.63. In series [2] (structure (II) compounds), the “Liver Luc @ 0.3 mg/kg (ng luc/g liver)” value was found to be 128 ± 17 ng luc/g liver and the “Liver Luc @ 1.0 mg/kg (ng luc/g liver)” value is reported as 827 ± 537 ng luc/g liver.

`CCCCCCCCC(CCCCCC)COC(=O)CCCCCN(CCCCCC(=O)OCC(CCCCCC)CCCCCCCC)CCCN(CCCO)C(=O)CCCCCCC` (stereo not shown) [II-16] displayed a pKa in series [1] (structure (II) compounds) of 6.08. Moreover, in series [2] (structure (II) compounds), the “Liver Luc @ 0.3 mg/kg (ng luc/g liver)” value amounted to 93 ± 38 ng luc/g liver and the “Liver Luc @ 1.0 mg/kg (ng luc/g liver)” value is 1312 ± 569 ng luc/g liver.

Source of the values: patent US11820728B2, “Carbonyl lipids and lipid nanoparticle formulations for delivery of nucleic acids” (Acuitas Therapeutics, Inc., priority 2017, dated 2023).
